{
  "source": "patent US9259453B2",
  "about": "“Use of salmonella flagellin derivative in preparation of drug for preventing and treating inflammatory bowel diseases” (priority 2011, dated 2016)",
  "key": {"IBD patients": {"tested_on": "IBD patients", "conditions": "cited from earlier work"}, "[1]": {"tested_on": "mice with ulcerative colitis in TNBS modeling", "assay": "Treatment of TNBS-induced ulcerative colitis (IBD) in mice, Example 2", "type": "in vivo, BALB/c mice", "experimental": "Experimental Animal: Male BALB/c mice (7-8 weeks old, 25±5 g) were obtained from Experimental Animal Center of Academy of Military Medical Sciences (Beijing, China). Mice were provided sterile food and water, and 12 h light/12 h dark cycle. All animal experiments were approved by the Institutional Animal Care and Use Committee at Academy of Military Medical Sciences.\nReagents: 2,4,6-trinitrobenzene sulfonic acid (TNBS, were purchased from Sigma Chemical Co.), CZLC331 (prepared in Example 1), RT PCR kit (ID isFSK100, purchased from Toyobo Biotechnology Co., Ltd.).\nModel preparation: Mice (hunger for 36 h) were anesthetized with isoflurane using anesthesia machine. To induce IBD, 150 mg/kg of TNBS (Sigma-Aldrich) in 38% ethanol (to break the intestinal epithelial barrier) was administered by the mouse gavage needle equipped with a 1 ml syringe, what the diameter of silicone tube is 2. 0 mm and the length is about 10 cm, the gavage needle was advanced into the rectum until the tip was 4 cm proximal to the anal verge. The total injection volume was 100 μl.\nExperimental animal groups: model group, treatment group and control group (n=8). The control mice received 38% ethanol alone by using the same method described above, and normal feeding two days. The treatment group: BALB/c mice were treated therapeutically with CBLB502 (3.2 mg/kg) at 0.5 h after TNBS administration. At the same time, BALB/c mice were treated therapeutically with CBLB502 (0.2-6.4 mg/kg) from 0.5 h to 8 h after TNBS administration, and normal feeding two days. The mice of model group were normal feeding two days after TNBS administration.\nMice were monitored for the appearance of diarrhea, changes of body weight, and overall mortality. At the end of the experiment after TNBS administration two days, surviving mice were killed, blood samples were collected by cardiac puncture, and a 7-cm segment of the colon was excised for macroscopic (FIG. 1, FIG. 4 left, and FIG. 5) and microscopic damage evaluation (FIG. 2, FIG. 4 right, and FIG. 6). And the end of the colon after washing using physiological saline was kept at −80° C. frozen for follow-up testing.\n2. Histological examination: The colonic samples were fixed in 4% buffered formalin overnight and then transferred to 70% ethanol, embedded in paraffin for sectioning, and then stained with hematoxylin and eosin (H&E) to examine the histological differences."}, "TLR family": {"tested_on": "TLR family", "assay": "Expression of TLR family in colon by RT-PCR after treatment in TNBS modeling", "type": "in vivo, BALB/c mice", "conditions": "3.2 mg/kg 4 h after TNBS", "source_text": "The colon samples were removed at the indicated times, washed with phosphate-buffered saline (pH 7.2), and cut in small pieces. Total RNA of colon samples what were control group, modeling group and treatment group were extracted by Total RNA kits II (Omega, Japan) according to the manufacturers' instructions, and then reverse-transcribed by the Reverse Transcription System (Sigma, USA). Subsequently, the TLRs and β-actin were amplified by PCR using the following primers (Table 1). The reaction system of PCR was 500, Ex Taq 0.250, 10× buffer 5 μl, dNTP 5 μl, template 2 μl, the upstream and downstream primers 1 μl, ddH2O 35.75 μl. The reaction condition of PCR is 95° C. 5 min, 95° C. 45 sec, 62° C. 45 sec, 72° C. 1 min, total 25 cycles, and then 72° C. 5 min. PCR products were identified on 2% agarose-gel electrophoresis followed by image analysis software."}, "[2]": {"conditions": "statement, no test described; cited from earlier work"}, "[3]": {"tested_on": "mice with ulcerative colitis in TNBS modeling", "assay": "Prevention of TNBS-induced IBD in mice, Example 3", "type": "in vivo, BALB/c mice", "experimental": "Experimental Animals: the same as in Example 2.\nReagents: the same as in Example 2.\nModel preparation: the same as in Example 2.\nExperimental animal groups: model group, prevention group and control group (n=8). The prevention group: BALB/c mice were treated therapeutically with CBLB502 (3.2 mg/kg) before TNBS administration, and then the mice were given TNBS and normal feeding two days. The model group was normal feeding two days after TNBS administration. The control mice received 38% ethanol alone by using the same method described above, and normal feeding.\nTest contents and test methods: the same as in Example 2."}, "[4]": {"conditions": "given 0.5 h before TNBS modeling, two days, versus model group"}},
  "note": "Entries after “also recorded” stand apart in the source; their conditions may differ.",
  "data": [
    {"compound": "O=C(O)c1cc(/N=N/c2ccc(S(=O)(=O)Nc3ccccn3)cc2)ccc1O", "note": "[sulfasalazine]", "values": [
      {"measurement": "side effects", "setting": "IBD patients; after taking the drug", "result": "nausea, rash, neutropenia"},
      {"measurement": "effective rate", "setting": "IBD patients; clinical drug", "result": "about 90%"},
      {"measurement": "markedly effective rate", "setting": "IBD patients; clinical drug", "result": 50, "unit": "%"},
      {"measurement": "onset (time until symptoms improved)", "setting": "IBD patients; clinical", "result": "about two"}
    ]},
    {"compound": "CZLC331: Salmonella flagellin derivative, SEQ ID NO: 3: Tat protein transduction peptide plus flagellin residues 1-176 and 402-505 joined by flexible linker; 331 amino acids", "values": [
      {"measurement": "clinical signs: blood in the stool, feeding/water intake, activity", "setting": "[1]; 0.2-6.4 mg/kg intraperitoneal, 0.5 h to 8 h after TNBS, two days, versus model group", "result": "feeding/water intake of mice return to normal, the activities increased significantly and reduce blood in the stool; also recorded: reduced"},
      {"measurement": "colon appearance: congestion, edema, hemorrhage, ulcers", "setting": "[1]; 0.2-6.4 mg/kg, 0.5 h to 8 h after TNBS, two days, versus model group", "result": "significantly reduced; also recorded: began reduce"},
      {"measurement": "colonic mucosa HE staining: cell structure, goblet cells, lymphocyte and neutrophil infiltration", "setting": "[1]; 0.2-6.4 mg/kg, 0.5 h to 8 h after TNBS, versus model group", "result": "significantly reduced; also recorded: structures of cells were arranged in neat, a small number of goblet cells and lymphocyte and neutrophil infiltration were disappeared; also recorded: well results for treating"},
      {"measurement": "cure rate", "setting": "[1]; TNBS mice, intraperitoneal CZLC331", "result": 70, "unit": "%"},
      {"measurement": "onset (time after administration to effect)", "setting": "[1]; examples 2 and 3, all animals", "result": 24, "unit": "h"},
      {"measurement": "effective rate", "setting": "[1]; improvement of feeding, activity and blood in stool, all animals of treatment group and prevention group (examples 2 and 3)", "result": 100, "unit": "%"},
      {"measurement": "effective rate of recovered colon mucosa", "setting": "[1]; treatment group", "result": 75, "unit": "%"},
      {"measurement": "expression of TLR6", "setting": "TLR family; raised in model group", "result": "no significant differences"},
      {"measurement": "expression of TLR7", "setting": "TLR family; raised in model group", "result": "no significant differences"},
      {"measurement": "expression of TLR8", "setting": "TLR family; raised in model group", "result": "would change"},
      {"measurement": "expression of TLR family", "setting": "TLR family; versus model group", "result": "significant differences with the model group"},
      {"measurement": "side effects", "setting": "[2]", "result": "no significant side effects"},
      {"measurement": "toxicity", "setting": "[2]", "result": "non-toxic"},
      {"measurement": "clinical signs: blood in the stool, eat less, move less", "setting": "[3]; [4]", "result": "reduced"},
      {"measurement": "colon: congestion, edema, hemorrhage", "setting": "[3]; [4]", "result": "began reduce"},
      {"measurement": "prevention of IBD (overall)", "setting": "[3]; given before TNBS modeling", "result": "protective effects"}
    ]}
  ]
}
